According to publication PMC10388311, “Innovative Strategy toward Mutant CFTR Rescue in Cystic Fibrosis: Design and Synthesis of Thiadiazole Inhibitors of the E3 Ligase RNF5” (Journal of Medicinal Chemistry, 2023):
In brackets after ≈: the same amount, converted by molar mass.

Tests used:
[1] = system: ATG4B-mediated basal autophagy in F508del-CFTR-expressing CFBE41o– cells; assay: Labeling of autophagic vacuoles with monodansylcadaverine (MDC); type: cell-based, human; details: test compounds 5 μM 24 h; torin-1 20 nM and SAR-405 2 μM in the last 3 h
From the text: To further support our hypothesis that CFTR rescue following treatment with test compounds was indeed due to RNF5 inhibition, we considered additional biological processes known to be regulated by RNF5 ligase activity. To this aim, we focused our attention on ATG4B, a known regulator of basal autophagy, whose degradation is mediated by RNF5 activity.[54]In vivo ubiquitination experiments previously confirmed that inh-2 inhibits ATG4B degradation, thus increasing the basal level of autophagy.[40] […] We thus evaluated the effect of inh-2 analogues on induction of the autophagy pathway. To this aim, we monitored the formation of autophagic vacuoles in F508del-CFTR-expressing CFBE41o^– cells (Figure 8) by using the autolysosome marker monodansylcadaverine (MDC). MDC accumulates inside autophagosomes. After fusion of autophagosomes with lysosomes, MDC fluorescence increases due to the acidic environment.[55] Therefore, F508del-CFTR-expressing CFBE41o^– cells were treated for 24 h with test compounds (5 μM), VX-809 (1 μM), or DMSO alone (vehicle). In the last 3 h of incubation, we added torin-1 (20 nM), a known autophagy inducer, and SAR-405 (2 μM), a potent inhibitor of the autophagic pathway. The cells were then loaded with MDC and evaluated by high-content confocal imaging to detect signal spots (corresponding to autophagic vacuoles) in each cell.
CFBE41o^– cells stably expressing F508del-CFTR and the HS-YFP were plated (50,000 cells/well) on good-quality clear-bottom 96-well black microplates suitable for high-content imaging. After 24 h, cells were treated with test compounds or DMSO (as the negative control). […] After 24 h, cells were incubated with 50 μM MDC (Sigma-Aldrich) in PBS at 37 °C for 10 min.[62] After incubation, cells were washed three times with PBS and immediately analyzed. High-content imaging and data analysis were performed using the Opera Phenix (PerkinElmer) high-content screening system. Wells were imaged in confocal mode using a 40× water-immersion objective. The MDC signal was laser-excited at 405 nm, and the emission wavelengths were collected between 435 and 550 nm. Data analysis of MDC spot number was performed using the Harmony software (ver 4.5) of the Opera Phenix high-content system. Data are expressed as means ± SEM, n = 3 independent experiments. Statistical significance was tested by parametric ANOVA followed by the Dunnet multiple comparisons test (all groups against the control group).

[2] = target: F508del-CFTR in CFBE41o– cells (Homo sapiens, UniProt Q99942); assay: HS-YFP microfluorimetric assay of F508del-CFTR rescue (corrector activity); type: cell-based; details: CFBE41o– cells co-expressing F508del-CFTR and HS-YFP, 24 h treatment, Figure 5
Experimental: As a primary screen, the new thiadiazole derivatives 1–46 (Table 1) were tested for their ability to rescue the F508del-CFTR trafficking defect in CFBE41o^– cells, stably co-expressing F508del-CFTR and the HS-YFP (Figure 5). This cell line has been extensively used by our group, in combination with the microfluorimetric assay based on the HS-YFP, to identify and characterize many CFTR correctors.[39],[47] This assay relies on the hypothesis that RNF5 inhibition results in increased mutant CFTR processing and activity. Therefore, it can easily identify putative RNF5 inhibitors, but not other types of RNF5-binding compounds that could have no effect or have a negative effect on CFTR function, such as RNF5 activators (see analog-1). Thus, we opted for this assay as our primary aim was the identification of RNF5 inhibitors as a possible therapeutic strategy in CF. Twenty-four hours after seeding on 96-well plates, CFBE41o^– cells stably expressing F508del-CFTR and the HS-YFP were treated with test compounds at the desired concentration, one compound per well. Cells treated with vehicle alone (DMSO) and with corrector VX-809 (1 μM), respectively, served as negative and positive controls. At the time of the assay, cells were washed with PBS containing (in […]) 137 NaCl, 2.7 KCl, 8.1 Na2HPO4, 1.5 KH2PO4, 1 CaCl2, and 0.5 MgCl2. Cells were then incubated for 25 min with […] of PBS plus forskolin (20 μM) and VX-770 (1 μM) to maximally stimulate F508del-CFTR. Cells were then transferred to a microplate reader (FluoStar Galaxy; BMG Labtech, Offenburg, Germany) for CFTR activity determination. The plate reader was equipped with high-quality excitation (HQ500/20X: 500 ± 10 nm) and emission (HQ535/30M: 535 ± 15 nm) filters for YFP (Chroma Technology). Each assay comprised a continuous 14 s fluorescence reading and 2 s before and 12 s after injection of […] of an iodide-containing solution (PBS with Cl^– replaced by I^–; final I^– concentration […]). Data were normalized to the initial background-subtracted fluorescence. To determine the I^– influx rate, the final 11 s of the data for each well was fitted with an exponential function to extrapolate initial slope (dF/dt). Reproducibility of results was confirmed by performing three independent experiments. CFBE41o^– cells co-expressing F508del-CFTR and the HS-YFP were reverse-transfected with 50 nM (final concentration) siRNAs (Stealth, Life Technologies) in the presence of lipofectamine 2000 as a transfection agent. The following day, the medium was changed, and the cells were incubated at 37 °C for additional 24 h treated with test compounds at the desired concentration, prior to processing the cells for the YFP-based functional assay.

[3] = Solubility and aggregation in PBS buffer by NMR (SPAM filter, 1H 1D and WaterLOGSY); type: physicochemical; details: PBS pH 7.5, 1 μM ZnCl2, 1 mM DTT, 10% D2O, 1% DMSO-d6; for solubility: PBS buffer, aqueous buffer, kinetic from dmso stock, theoretical concentration 20 μM, read-out: solubility in PBS buffer by NMR, 20 μM; for aggregation in PBS buffer by NMR: WaterLOGSY
From the text: Under these circumstances, it was decided to explore the solubility of all the synthetized compounds, regardless of their biological activities, to find a suitable candidate for the validation of our working hypothesis, i.e., that the compounds exert their activities by directly binding to RNF5. For that, we first calculated the predicted octanol/water partition coefficient (log Po/w) and the predicted aqueous solubility (log S) of all the analogues by QikProp (Schrödinger Release 2022-1: QikProp, Schrödinger, LLC, New York, NY, 2021, Table S1). […] To shrink down the number of compounds for solubility experiments, just the ones that had −2.0 < log Po/w < 6 and −6.5 < log S <0.5 values were selected. Among them, the PBS solubility was determined for five representative analogues: (i) 12 and 29 bearing different substituents on the benzyl group A; (ii) 34 and 40 showing the replacement of rings B and C with pyridine-4-yl moieties; (iii) 42 in which the N-phenylbenzamidine portion was replaced with a pyridine-2-yl moiety (Table 1).
All the NMR experiments were recorded at 298 K using a 5 mm CryoProbe QCI ^1H/^19F–^13C/^15N–D quadruple resonance, a shielded z-gradient coil, and an automatic sample changer SampleJet NMR system with temperature control. The solubility of the compounds were evaluated by ^1H 1D experiments and aggregation by WaterLOGSY, testing the compounds in buffer PBS pH 7,5, 1 μM ZnCl2, 1 mM DTT, 10% D2O (for the lock signal), and 1% DMSO-d6 at the theoretical concentrations of 20, 50, and 100 μM in the presence of 200 μM 4-trifluoromethyl benzoic acid (internal reference). For all samples, a 1D ^1H NMR experiment was recorded, the water suppression was obtained using the standard NOESY (nuclear Overhauser effect spectroscopy) preset Bruker pulse sequence, with 64k data points, a spectral width (sw) of 30 ppm, 64 scans, acquisition time (aq) of 1.835 s, a relaxation delay (d1) of 4 s, and a mixing time of 10 ms. […] The data were multiplied by an exponential window function with 1 Hz line broadening prior to Fourier transformation. For NMR binding experiments, the compounds were tested at 50 μM in buffer PBS pH 7.5, 1 μM ZnCl2, 1 mM DTT, 10% D2O (for the lock signal), and 1% DMSO-d6 in the absence and in the presence of 3 μM RNF5. WaterLOGSY experiments were recorded with the same parameters used in solubility assays, but with a higher number of scans (512); STD experiments were recorded with 128 scans, with two on (0.7 and 1 ppm) and one off (−50 ppm) resonance spectra, a Gaussian-shaped train pulse of 50 ms each was employed, with a total saturation time of the protein envelope of 5, 3, 2, 1.5, 1, or 0.5 s. A T1ρ filter of 2 ms was employed in STD experiments to eliminate the background signals from the protein. The STD spectrum was obtained by subtraction of the on-resonance spectrum from the off-resonance spectrum. Subtraction was performed by phase cycling to minimize artifacts arising from magnet and temperature instabilities.

Chain of F508del-CFTR in CFBE41o– cells (Q99942 2-180): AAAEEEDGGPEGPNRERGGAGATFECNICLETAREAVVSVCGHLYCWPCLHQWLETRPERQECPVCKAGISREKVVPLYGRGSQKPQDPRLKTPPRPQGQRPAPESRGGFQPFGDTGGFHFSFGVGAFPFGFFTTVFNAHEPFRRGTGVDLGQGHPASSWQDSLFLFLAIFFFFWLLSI
Chain of F508del-CFTR in CFBE41o– cells (P13569 with tags, fused parts or gaps DEL508-508 partner): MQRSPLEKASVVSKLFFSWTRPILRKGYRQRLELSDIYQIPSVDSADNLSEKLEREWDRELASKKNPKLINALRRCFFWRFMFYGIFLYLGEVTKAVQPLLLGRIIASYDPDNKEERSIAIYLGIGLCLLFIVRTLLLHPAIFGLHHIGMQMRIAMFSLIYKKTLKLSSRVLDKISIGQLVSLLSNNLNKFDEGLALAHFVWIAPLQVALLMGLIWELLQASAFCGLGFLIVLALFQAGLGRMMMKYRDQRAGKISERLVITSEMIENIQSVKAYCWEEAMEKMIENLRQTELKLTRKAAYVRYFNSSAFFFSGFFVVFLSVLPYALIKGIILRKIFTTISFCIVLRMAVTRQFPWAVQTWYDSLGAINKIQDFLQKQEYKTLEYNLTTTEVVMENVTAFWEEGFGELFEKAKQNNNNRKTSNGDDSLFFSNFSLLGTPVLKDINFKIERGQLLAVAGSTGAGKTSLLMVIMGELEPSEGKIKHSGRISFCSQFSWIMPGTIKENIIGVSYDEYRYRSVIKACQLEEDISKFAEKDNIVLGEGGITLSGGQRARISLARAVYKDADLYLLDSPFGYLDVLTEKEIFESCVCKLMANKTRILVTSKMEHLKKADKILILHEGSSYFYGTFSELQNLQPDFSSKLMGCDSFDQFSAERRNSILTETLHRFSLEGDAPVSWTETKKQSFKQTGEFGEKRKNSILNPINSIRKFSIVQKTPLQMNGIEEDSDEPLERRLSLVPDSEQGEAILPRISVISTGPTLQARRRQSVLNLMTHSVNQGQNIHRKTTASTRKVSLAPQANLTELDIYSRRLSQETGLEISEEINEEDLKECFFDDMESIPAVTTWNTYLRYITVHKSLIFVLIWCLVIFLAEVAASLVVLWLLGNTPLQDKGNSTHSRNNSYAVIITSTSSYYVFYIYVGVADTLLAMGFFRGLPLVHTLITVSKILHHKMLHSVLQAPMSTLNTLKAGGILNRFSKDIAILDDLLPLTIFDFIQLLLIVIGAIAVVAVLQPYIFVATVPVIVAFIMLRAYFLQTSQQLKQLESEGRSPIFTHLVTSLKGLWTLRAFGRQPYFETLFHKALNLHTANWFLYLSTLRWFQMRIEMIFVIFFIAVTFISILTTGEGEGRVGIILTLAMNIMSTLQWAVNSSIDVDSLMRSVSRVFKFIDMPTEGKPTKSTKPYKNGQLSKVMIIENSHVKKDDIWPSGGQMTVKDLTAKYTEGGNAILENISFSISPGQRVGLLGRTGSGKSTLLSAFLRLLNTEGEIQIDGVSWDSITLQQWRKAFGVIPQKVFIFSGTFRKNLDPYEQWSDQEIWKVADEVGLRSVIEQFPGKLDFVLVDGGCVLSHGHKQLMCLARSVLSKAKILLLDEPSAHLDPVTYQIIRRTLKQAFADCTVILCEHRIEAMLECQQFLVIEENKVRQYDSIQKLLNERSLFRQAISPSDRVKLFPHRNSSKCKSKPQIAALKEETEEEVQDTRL

## C[C@@H]1COCCN1c1cc(=O)n2c(n1)N(Cc1cncc(Cl)c1)[C@H](C(F)(F)F)CC2 [SAR-405, reference compound]
[1]
  number of autophagic vacuoles (MDC signal spots): significantly decreased

## CCC(=O)N1CCN(c2ccc(-n3c(=O)ccc4cnc5ccc(-c6cnc7ccccc7c6)cc5c43)cc2C(F)(F)F)CC1 [torin-1, reference compound]
[1]
  number of autophagic vacuoles (MDC signal spots): significantly increased

## CNc1cccc(Cn2c(C)ns/c2=N\C(=N\c2ccccc2)c2ccccc2)c1 [Compound 21, (E)-N-((Z)-3-Methyl-4-(3-(methylamino)benzyl)-1,2,4-thiadiazol-5(4H)-ylidene)-N′-phenylbenzimidamide]
[2]
  F508del-CFTR corrector activity compared with inh-2 (CFTR activity, primary screen): did not affect the activity
[1]
  number of autophagic vacuoles (MDC signal spots): significantly increased

## Cc1ns/c(=N\C(=N\c2ccccc2)c2ccncc2)n1Cc1ccccc1 [Compound 34, (E)-N-((Z)-4-Benzyl-3-methyl-1,2,4-thiadiazol-5(4H)-ylidene)-N′-phenylisonicotinimidamide]
[3]
  solubility: 10 µM (≈ 3.85 µg/mL)
  aggregation in PBS buffer by NMR: no
[2]
  F508del-CFTR corrector activity compared with inh-2 (CFTR activity, primary screen): maintaining the activity equal to inh-2
[1]
  number of autophagic vacuoles (MDC signal spots): significantly decreased

## Cc1ns/c(=N\C(=N\c2ccccc2)c2ccccc2)n1Cc1ccc(F)cc1 [Compound 9, (E)-N-((Z)-4-(4-Fluorobenzyl)-3-methyl-1,2,4-thiadiazol-5(4H)-ylidene)-N′-phenylbenzimidamide]
[2]
  F508del-CFTR corrector activity compared with inh-2 (CFTR activity, primary screen): maintained the activity unaltered
[1]
  number of autophagic vacuoles (MDC signal spots): significantly decreased

## Cc1ns/c(=N\C(=N\c2ccccc2)c2ccccc2)n1Cc1ccccc1N [Compound 29, (E)-N-((Z)-4-(2-Aminobenzyl)-3-methyl-1,2,4-thiadiazol-5(4H)-ylidene)-N′-phenylbenzimidamide]
[3]
  solubility: < 5 µM
  aggregation in PBS buffer by NMR: no
[3]; theoretical concentration 50 μM
  solubility at 50 µM: <5 µM
[3]; theoretical concentration 100 μM
  solubility at 100 µM: <5 µM
[2]
  F508del-CFTR corrector activity compared with inh-2 (CFTR activity, primary screen): comparable activity to the unsubstituted original hit inh-2

## Cc1ns/c(=N\C(=N\c2ccccc2)c2ccccc2)n1Cc1ccc(Br)cc1 [Compound 11, (E)-N-((Z)-4-(4-Bromobenzyl)-3-methyl-1,2,4-thiadiazol-5(4H)-ylidene)-N′-phenylbenzimidamide]
[2]
  F508del-CFTR corrector activity compared with inh-2 (CFTR activity, primary screen): maintained the activity unaltered
[1]
  number of autophagic vacuoles (MDC signal spots): significantly increased

## Cc1ns/c(=N\C(=N\c2ccccc2)c2ccccc2)n1Cc1ccc(N)cc1 [Compound 13, (E)-N-((Z)-4-(4-Aminobenzyl)-3-methyl-1,2,4-thiadiazol-5(4H)-ylidene)-N′-phenylbenzimidamide]
[2]
  F508del-CFTR corrector activity compared with inh-2 (CFTR activity, primary screen): reduced potency

## Cc1ns/c(=N\C(=N\c2ccccc2)c2ccco2)n1Cc1ccccc1 [Compound 36, (E)-N-((Z)-4-Benzyl-3-methyl-1,2,4-thiadiazol-5(4H)-ylidene)-N′-phenylfuran-2-carboximidamide]
[2]
  F508del-CFTR corrector activity compared with inh-2 (CFTR activity, primary screen): drop of activity
